This is an account of results in publication PMC12218921, “An adaptive peptide-binding site in ubiquitin receptor hRpn13 revealed by structural studies” (Nature Communications, 2025).

One experiment deals with hRpn13 Pru. As to the kind of experiment: 1H-15N HSQC NMR, DTT versus TCEP in buffer. Format: binding, human. The note with it: 1 mM DTT or TCEP, 15N-hRpn13 Pru, 25 °C, 850 MHz. From the text:
Although DTT is trapped bound to C88 in the crystal, we expected that its interaction with hRpn13 in solution is likely to be transient and dynamic. Nonetheless, we tested whether NMR spectroscopy could detect differences between hRpn13 Pru dissolved in buffer containing DTT versus TCEP. We used previously obtained NMR resonance assignments[13] and 2D ^1H-^15N HSQC experiments to detect the hRpn13 amide signals, which are sensitive to changes in their chemical environment, for ^15N-labeled hRpn13 Pru with either 1 mM DTT or TCEP present in the buffer. […] C60 and C80 by contrast show no spectral perturbations (Supplementary Fig. 8a).
All ^1H-^15N HSQC experiments were acquired on samples dissolved in NMR buffer (20 mM sodium phosphate, pH 6.5, 50 mM NaCl, 1 mM TCEP, 10% D2O) unless specified, in which case 2 mM DTT replaced TCEP. The samples were purified in DTT-containing buffer and then exchanged into NMR buffer by using Zeba Protein Desalting columns (Thermo Fisher Scientific). The pH was measured and adjusted to 6.5. […] The data were processed by NMRpipe[46] (version 11.5) and spectra visualized and analyzed with NMR-FAM-SPARKY[47] (version 3.190) by using previous chemical shift assignments[12],[23] and NMRbox[48]. The amide nitrogen and hydrogen chemical shift perturbations (CSP) were mapped for each amino acid according to Eq. 1.1 CSP=0.2ΔδN2+ΔδH2 […]

Experiment [1] concerns hRpn13 F76 arginine substitution. Conditions: cited from earlier work.

Take `O[C@@H](CS)[C@@H](O)CS` (racemic) [DTT, dithiothreitol]: the “HSQC signal shifting, DTT versus TCEP” value in the experiment with hRpn13 Pru is reported as “slight signal shifting, including for C88”.
As for ubiquitin, the “hRpn13 binding to ubiquitin on arginine substitution of F76” value in experiment [1] was “abolishes hRpn13 binding to ubiquitin”.
